The numbers were not newly measured in patent US5972639A, “Fluorescence-based assays for measuring cell proliferation” (Irori, priority 1997, dated 1999), which cites them from elsewhere.

Usually Km stands for the concentration of substrate that gives half-maximal velocity.

What all share (details): cited from earlier work
In one data set the test system is Acid phosphatase.
A further data set deals with Alkaline phosphatase.
Data set [1] concerns the target Alkaline phosphatase (E. coli) (Escherichia coli, UniProt P00634).

Chain of Alkaline phosphatase (E. coli) (P00634 22-471): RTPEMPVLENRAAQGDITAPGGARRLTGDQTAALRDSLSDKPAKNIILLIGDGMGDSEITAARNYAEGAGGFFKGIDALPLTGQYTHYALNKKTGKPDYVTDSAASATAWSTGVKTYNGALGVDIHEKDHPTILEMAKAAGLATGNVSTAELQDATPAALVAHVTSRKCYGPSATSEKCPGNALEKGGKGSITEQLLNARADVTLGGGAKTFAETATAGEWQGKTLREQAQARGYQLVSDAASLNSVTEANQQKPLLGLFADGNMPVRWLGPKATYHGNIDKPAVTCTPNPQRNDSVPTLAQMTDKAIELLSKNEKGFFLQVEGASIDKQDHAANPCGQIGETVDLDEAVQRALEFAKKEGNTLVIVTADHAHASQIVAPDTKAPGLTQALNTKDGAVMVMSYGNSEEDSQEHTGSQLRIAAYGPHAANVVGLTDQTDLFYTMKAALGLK

As to `COC(=O)CCSP(=O)(O)O` [S-[2-(Methoxy-carboxyl)ehtyl] phosphorothioate], in the data set with Acid phosphatase, the “Acid phosphatase, products identified” value is given as “No cleavage”. Further, the “Alkaline phosphatase, products identified” value with Alkaline phosphatase was “d, ^32 Pi”.
As for `O=[N+]([O-])c1ccc(OP(=O)(O)O)cc1` [p-NPP, p-nitrophenyl phosphate], the Km in data set [1] is 94 µM.
`CC(=O)NCCSP(=O)(O)O` [N-Acetylcysteamine S-phosphate]: the “Acid phosphatase, products identified” value with Acid phosphatase was “No cleavage”. Besides, in the data set on Alkaline phosphatase, the “Alkaline phosphatase, products identified” value is reported as “N-Acetylcysteamine”.
